According to US8084209B2, “HMGCR isoforms in prediction of efficacy and identification of cholesterol-modulating compounds” (Children's Hospital & Research Center Oakland, priority 2005, dated 2011):

Tests used:
[1] = CAP trial: plasma lipid, lipoprotein and apoprotein response to 40 mg/day simvastatin; assay type: in vivo, human; set-up: LDL-Cholesterol, Absolute Difference / HDL-Cholesterol, Absolute Difference / ApoA1, Absolute Difference / ApoB, Absolute Difference / IDL-Cholesterol, Absolute Difference: unit not given here; Total Cholesterol, Absolute Difference: unit: mg/dL; conditions: for ApoA1, Absolute Difference / ApoB, Absolute Difference / HDL-Cholesterol, Absolute Difference / IDL-Cholesterol, Absolute Difference / LDL-Cholesterol, Absolute Difference / Total Cholesterol, Absolute Difference: 40 mg/day simvastatin in vivo
Experimental: Patients and cell lines. The Cholesterol/Atherosclerosis Pharmacogenetics (CAP) trial was a non-randomized, non-blinded study of 944 African-American and Caucasian men and women age 30 or older with baseline total cholesterol of 160 to 400 mg/dL.
A subset of 66 African American patients from the CAP trial was chosen for testing of the HMGCR gene expression assay (Examples 1, 2, 3, 4 and 5). An African American was defined as an individual who had three or more grandparents who self-identified as African American. A Caucasian was defined as an individual who had three or more grandparents who self-identified as Caucasian American. The table below provides a summary of the demographics for this population.
The table below provides a summary of the population demographics.
A dose study was performed with a second subset of 60 African American patients (Examples 1, 3, 4, and 5). […] The population demographics for this group is shown below.

[2] = test system: total HMGCR (6-7) transcript; assay: HMGCR gene expression by real time PCR in immortalized lymphocyte cell lines, exons 6 to 7 assay; assay type: cell-based, human; conditions: 24 hours
Experimental: Cell lines were grown at 37° C., 5% CO2 in RPMI Medium 1640 (Invitrogen) supplemented with 10% fetal bovine serum (Hyclone), 500 units/ml Penicillin/Streptomycin (Invitrogen) and 2 nM GlutaMAX (Invitrogen). […] Media was changed 24 hours prior to exposure to ensure the cultures were in an active growth phase. After exposure, cells were pelleted, resuspended in Trizol (Invitrogen), and stored at −80° C. until RNA extraction.
RNA isolation and cDNA synthesis. RNA was isolated from the cell/Trizol slurries following the manufacturer's protocol (Invitrogen). RNA quality was assessed by gel electrophoresis and A260/A280 measured via spectrophotometry. […]
Real time PCR standards were generated by amplifying 100 ng lymphocyte cDNA with 1×PCR buffer, 1.5 mM MgCl2, 0.5 mM dNTPs, 1 mM of each primer, and 0.125 units Taq DNA polymerase (Invitrogen). […] Eight PCR reactions for each standard was generated, pooled, and quantitated via gel electrophoresis using a DNA low mass ladder (Invitrogen). […] PCR standards were run in triplicate on each plate to serve as a positive control for the assay and to quantitate levels of gene expression.
SLC7A5 and CLPTM1 were quantitated in all samples by TaqMan assays purchased from Applied Biosystems (part numbers Hs0018526_m1 and Hs00171300_m1). […]
HMGCR(12-13) and spliced HMGCR(12-14) mRNA was quantified via real time PCR as described above.

[3] = Study Population A, African Americans, N 66
[4] = Study Population B, Caucasian Americans, N 43
[5] = Study Population C, African Americans, N 60
[6] = on statin therapy, data in Examples 1-5

CCC(C)(C)C(=O)O[C@H]1C[C@@H](C)C=C2C=C[C@H](C)[C@H](CC[C@@H]3C[C@@H](O)CC(=O)O3)[C@H]21 [simvastatin]
mean HDL-cholesterol increase ([1]; African Americans, on statin therapy): 0.96 mg/dL
mean HDL-cholesterol increase ([1]; Caucasian Americans, on statin therapy): 2.17 mg/dL
ApoA1, Absolute Difference [1, 3]: −1.69 ± 1.76
ApoB, Absolute Difference [1, 3]: −27.11 ± 1.71
HDL-Cholesterol, Absolute Difference [1, 3]: 0.96 ± 0.75
IDL-Cholesterol, Absolute Difference [1, 3]: −9.06 ± 0.75
LDL-Cholesterol, Absolute Difference [1, 3]: −51.17 ± 2.37
Total Cholesterol, Absolute Difference [1, 3]: −54.48 ± 2.79
ApoA1, Absolute Difference [1, 4]: −2.114 ± 2.271
ApoB, Absolute Difference [1, 4]: −33.091 ± 2.700
HDL-Cholesterol, Absolute Difference [1, 4]: 2.155 ± 0.904
IDL-Cholesterol, Absolute Difference [1, 4]: −10.373 ± 1.066
LDL-Cholesterol, Absolute Difference [1, 4]: −63.909 ± 3.455
Total Cholesterol, Absolute Difference [1, 4]: −65.614 ± 3.791
ApoA1, Absolute Difference [1, 5]: 2.80 ± 1.79
ApoB, Absolute Difference [1, 5]: −28.03 ± 1.88
HDL-Cholesterol, Absolute Difference [1, 5]: 1.98 ± 0.55
IDL-Cholesterol, Absolute Difference [1, 5]: −10.23 ± 0.80
LDL-Cholesterol, Absolute Difference [1, 5]: −55.74 ± 3.36
Total Cholesterol, Absolute Difference [1, 5]: −57.73 ± 3.62
mean IDL cholesterol reduction (printed: mean total cholesterol reduction) [1, 6]: -9.85 mg/dL
mean LDL-cholesterol reduction [1, 6]: -56.0 mg/dL
mean total cholesterol reduction [1, 6]: -58.5 mg/dL
up-regulation of HMGCR(6-7) ([2]; African American cell lines, 14.5 μM simvastatin): 1.65±0.48 fold
total HMGCR (6-7) gene up-regulation, average fold change ([2]; cell lines derived from African Americans, 1.8 μM activated simvastatin): 1.44 fold
